Values quoted from earlier work, collected in patent US20240226060A1, “TOPICAL LIPOSOME POLYPHENOL COMPOSITIONS FOR TREATING AND PREVENTING VARIOUS SKIN DISORDERS AND METHODS OF PREPARATION THEREOF” (PANAG PHARMA INC., priority 2021, published 2024).
Like-named read-outs stand apart in the source and are kept apart here.

Key:
[1] = simulated physiological conditions pH 7.4 and 37° C., within 24 hours
epidermolysis bullosa = conditions: CBD oil, 3 patients
[2] = not given; remark: listed apart in the source
facial skin aging = conditions: 1% apigenin cream, twice daily, 2 and 4 weeks
[3] = 2% minoxidil in MLVs
facial acne vulgaris = conditions: for revised Leeds score at week 8: baseline 5.1
[4] = surfactant micelles, U.S. Pat. No. 10,709,748
[5] = twice daily 3 days, 4 hours after last dose
[6] = 1% EGCG, 8 weeks, vs baseline and vehicle

## C=C(C)[C@@H]1CCC(C)=C[C@H]1c1c(O)cc(CCCCC)cc1O [CBD, cannabidiol]
[1]
  CBD loss: 10%
CFA-induced arthritis; 1% CBD gel on shaved back, 4 days
  joint swelling and pain: optimally reduced swelling and alleviated pain
CFA-induced arthritis; 10% CBD gel versus 1%
  joint swelling and pain: did not yield additional improvement
CFA-induced arthritis; lower doses (0.1, 0.5% CBD gel)
  CFA-induced edema: no effect
Epidermolysis bullosa
  patient-reported outcome: faster wound healing, less blistering, and amelioration of pain
[4]
  encapsulation efficiency: 86%

## CCCCCc1cc(O)c2c(c1)OC(C)(C)[C@@H]1CCC(C)=C[C@@H]21 [THC, tetrahydrocannabinol]
[4]
  encapsulation efficiency: 92%

## O=c1cc(-c2ccc(O)cc2)oc2cc(O)cc(O)c12 [apigenin]
[2]; ethanol
  solubility: poor solubility
[2]; propylene glycol and polyethylene glycol 400
  solubility: superior solubilities
Facial skin aging
  dermal density, skin elasticity, length of fine wrinkles: Significant improvements
  skin moisture content, TEWL and skin texture: significantly improved

## Oc1ccc(O)cc1 [hydroquinone]
melasma; 4% cream in melasma patients
  patients presenting with erythema, burning and scaling: 71%
melasma; 4% cream, after three months
  MASI score reduction from baseline: 39%

## Clc1ccc(COC(Cn2ccnc2)c2ccc(Cl)cc2Cl)c(Cl)c1 (stereo not drawn) [miconazole nitrate]
Proliposome method with propylene glycol, El-Khordagui et al
  encapsulation efficiency: 95.6%

## Nc1cc(N2CCCCC2)nc(N)[n+]1[O-] [minoxidil]
[3]
  drug in cumulative urine samples, liposome versus suspension & solution: significant less drug
[3]; [5]
  drug content in dermis, liposome versus suspension & solution: 4-5 fold
  drug content in epidermis, liposome versus suspension & solution: 2-3 fold
  drug content on skin surface, liposome versus suspension & solution: 3-4 fold

## CC(=O)[C@H]1CC[C@H]2[C@@H]3CCC4=CC(=O)CC[C@]4(C)[C@H]3CC[C@]12C [progesterone]
DPPC/cholesterol MLVs, thin film hydration, U.S. Pat. No. 4,485,054
  encapsulation efficiency (EE): 77%

## epigallocatechin 3-gallate [EGCG]
Facial acne vulgaris; 1% EGCG hydroalcoholic solution
  revised Leeds score at week 8: 1.2
Facial acne vulgaris; [6]
  mean inflammatory lesion count decrease: 89%
  mean noninflammatory lesion count decrease: 79%
Facial acne vulgaris; 5% EGCG hydroalcoholic solution
  revised Leeds score at week 8: 1.7

## isoscutellarein
liposomes, 9 parts egg PC to 2 parts flavonoid, Demetzos et al
  incorporation efficiency: 95%
